This is an account of results in patent US20100035929A1, “UNNATURAL DISPYRIN ANALOGUES, PREPARATION AND USES THEREOF” (priority 2008, published 2010).

Data set [1] has as its target T1, human H3 receptor (Homo sapiens, UniProt Q9Y5N1). Description: H3 affinity, radioligand binding assay employing [3H](R)-α-methylhistamine. From the text:
(§1) In one aspect, H3 affinity (Ki) and inhibition (IC50) can be determined in 5-point concentration response curves. Using data obtained from such methods, SAR can be established.

Data set [2] has as its target T1, human H3 receptor. The data set can be described thus: H3 antagonist activity / inhibition (IC50). It is filed as biochemical.
Text: as §1

In data set [3] the test system is other GPCRs and ion channels. Description: MDS Pharma Services radioligand binding panel, initial screen at single 10 μM concentration: other targets. The settings on record: at 10 μM; none with significant activity (no Kis or IC50s<10 μM). As to the method: (§2) Multiple screening avenues were pursued to identify the biological activity of dispyrin. Dispyrin was submitted to the screening deck of the Molecular Library Screening Network (MLSCN) and was evaluated against several GPCR targets (M1, M4, D1/D5, mGluR5, mGluR4) in agonist, antagonist and potentiator mode. Utilizing panels of radioligand binding assays from several companies, dispyrin was evaluated against >200 discrete molecular targets over the course of two months. The MDS Pharma Services panel identified multiple activities for dispyrin. […] Other modest activities at the 50-60% range at 10 u.M included other GPCRs and ion channels, but none with significant activity (no Kis or IC50s<10 μM).

For data set [4], the system named is calcium and potassium ion channels, including hERG. Description: MDS Pharma Services radioligand binding panel, initial screen at single 10 μM concentration: ion channels. The settings on record: human, read-out: inhibition of a number of calcium and potassium ion channels, including hERG. As for the experimental part: as §2
In general terms: Block of hERG is tested as a sign of cardiac risk.

Setting [5] is: 5-point concentration response curves, read-out: H3 Ki.
[6] abbreviates: 5-point concentration response curves, read-out: H3 IC50.

Read-outs that look alike come from different tables or passages of the source.

T1 sequence (Q9Y5N1 whole entry): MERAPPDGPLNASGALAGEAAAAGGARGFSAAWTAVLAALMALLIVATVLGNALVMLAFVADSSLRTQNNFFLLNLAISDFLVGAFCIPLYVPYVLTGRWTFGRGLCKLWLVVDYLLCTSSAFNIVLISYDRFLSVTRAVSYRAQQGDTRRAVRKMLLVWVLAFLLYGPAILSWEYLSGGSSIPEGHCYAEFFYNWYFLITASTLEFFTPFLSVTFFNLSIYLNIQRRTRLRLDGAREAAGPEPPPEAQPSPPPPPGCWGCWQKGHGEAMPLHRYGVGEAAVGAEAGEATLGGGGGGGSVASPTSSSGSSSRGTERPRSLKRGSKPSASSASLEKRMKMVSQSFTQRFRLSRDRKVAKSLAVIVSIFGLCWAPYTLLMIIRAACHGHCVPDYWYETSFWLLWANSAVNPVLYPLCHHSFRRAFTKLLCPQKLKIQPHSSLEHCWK

Usually Ki stands for a measure of affinity in units of concentration, obtained from inhibition or displacement. For orientation: IC50 means the point on the concentration scale where inhibition reaches its midpoint. As to `O=C(NCCc1ccc(OCCN2CCCC2)c(Br)c1)c1cc(Br)c[nH]1` [4-bromo-N-(3-bromo-4-(2-(pyrrolidin-1-yl)ethoxy)phenethyl)-1H-pyrrole-2-carboxamide], the Ki at human H3 receptor [1] (setting [5]) was 190 nM. Also, the IC50 at human H3 receptor [2] (setting [6]) was 430 nM.
The like results for `CN(C)CCCOc1ccc(CCNC(=O)c2cccn2C)cc1Br` [N-(3-bromo-4-(3-(dimethylamino)propoxy)phenethyl)-1-methyl-1H-pyrrole-2-carboxamide] were, in that order, 1700 nM and 3900 nM.
The like results for `CN1CCCC(COc2ccc(CCNC(=O)c3ccc(Br)o3)cc2Br)C1` (stereo not shown) [5-bromo-N-(3-bromo-4-((1-methylpiperidin-3-yl)methoxy)phenethyl)furan-2-carboxamide] were, in that order, 2100 nM and 4500 nM.
The like results for `CN(C)CCOc1ccc(CCNC(=O)c2ccc[nH]2)cc1Br` [N-(3-bromo-4-(2-(dimethylamino)ethoxy)phenethyl)-1H-pyrrole-2-carboxamide] were, in that order, 1500 nM and 3400 nM.
`O=C(NCCc1ccc(OCCN2CCCC2)c(Br)c1)c1cc(Br)cs1` [4-bromo-N-(3-bromo-4-(2-(pyrrolidin-1-yl)ethoxy)phenethyl)thiophene-2-carboxamide]: the inhibition constant Ki at human H3 receptor [1] (setting [5]) was 80 nM. For the same molecule, the IC50 at human H3 receptor [2] (setting [6]) is 180 nM.
On the same counts, the results for `CN(C)CCOc1ccc(CCNC(=O)c2cc(Br)cs2)cc1Br` [4-bromo-N-(3-bromo-4-(2-(dimethylamino)ethoxy)phenethyl)thiophene-2-carboxamide] are 670 nM and 1500 nM.
On the same counts, the results for `O=C(NCCc1ccc(OCCN2CC[C@H](F)C2)c(Br)c1)c1cc(Br)cs1` [(S)-4-bromo-N-(3-bromo-4-(2-(3-fiuoropyrrolidin-1-yl)ethoxy)phenethyl)thiophene-2-carboxamide] are 1100 nM and 2500 nM.
On the same counts, the results for `O=C(NCCc1ccc(OCCN2CCCC2)c(Br)c1)c1cccc(C(F)(F)F)c1` [N-(3-bromo-4-(2-(pyrrolidin-1-yl)ethoxy)phenethyl)-3-(trifluoromethyl)benzamide] are 440 nM and 980 nM.
In the case of `CN(C)CCOc1ccc(CCNC(=O)c2cccn2C)cc1Br` [N-(3-bromo-4-(2-(dimethylamino)ethoxy)phenethyl)-1-methyl-1H-pyrrole-2-carboxamide], the Ki on human H3 receptor [1] (setting [5]) came out at 2100 nM. Besides, the concentration for half-maximal inhibition (IC50) at human H3 receptor [2] (setting [6]) turned out to be 4500 nM.
On to `CN(C)CCOc1ccc(CCNC(=O)c2cc(Br)c[nH]2)cc1Br` [4-bromo-N-(3-bromo-4-(2-(dimethylamino)ethoxy)phenethyl)-1H-pyrrole-2-carboxamide], for which, on human H3 receptor [1] (setting [5]), the Ki amounted to 1600 nM. In addition, on human H3 receptor [2] (setting [6]), the IC50 amounted to 3700 nM.
On the same counts, the results for `O=C(NCCc1ccc(OCCN2CCCC2)c(Br)c1)c1nccs1` [N-(3-bromo-4-(2-(pyrrolidin-1-yl)ethoxy)phenethyl)thiazole-2-carboxamide] are 116 nM and 260 nM.
On the same counts, the results for `CN(C)CCCOc1ccc(CCNC(=O)c2ccc(Br)o2)cc1Br` [5-bromo-N-(3-bromo-4-(3-(dimethylamino)propoxy)phenethyl)furan-2-carboxamide] are 2200 nM and 4800 nM.
On the same counts, the results for `CN1CCCC(COc2ccc(CCNC(=O)c3cc(Br)c[nH]3)cc2Br)C1` (stereo not shown) [4-bromo-N-(3-bromo-4-((1-methylpiperidin-3-yl)methoxy)phenethyl)-1H-pyrrole-2-carboxamide] are 1300 nM and 2900 nM.
Regarding `O=C(NCCc1ccc(OCCN2CCCC2)c(Cl)c1)c1cc(Br)cs1` [4-bromo-N-(3-chloro-4-(2-(pyrrolidin-1-yl)ethoxy)phenethyl)thiophene-2-carboxamide], at human H3 receptor [1] (setting [5]), the inhibition constant (Ki) was found to be 160 nM. For the same molecule, the IC50 on human H3 receptor [2] (setting [6]) is 350 nM.
On the same counts, the results for `CN(C)CCCOc1ccc(CCNC(=O)c2cc(Br)cs2)cc1Br` [4-bromo-N-(3-bromo-4-(3-(dimethylamino)propoxy)phenethyl)thiophene-2-carboxamide] are 1600 nM and 3600 nM.
As to `O=C(NCCc1ccc(OCCN2CCCC2)c(Br)c1)c1cccc(C(F)(F)F)n1` [N-(3-bromo-4-(2-(pyrrolidin-1-yl)ethoxy)phenethyl)-6-(trifluoromethyl)picolinamide], the inhibition constant (Ki) at human H3 receptor [1] (setting [5]) is 270 nM. For the same molecule, the IC50 at human H3 receptor [2] (setting [6]) is 560 nM.
On the same counts, the results for `Cn1cccc1C(=O)NCCc1ccc(OCCN2CCCC2)c(Br)c1` [N-(3-bromo-4-(2-(pyrrolidin-1-yl)ethoxy)phenethyl)-1-methyl-1H-pyrrole-2-carboxamide] are 130 nM and 390 nM.
For the molecule `O=C(NCCc1ccc(OCCN2CC[C@@H](F)C2)c(Br)c1)c1cc(Br)cs1`, on human H3 receptor [1] (setting [5]), the inhibitory constant (Ki) was found to be 1100 nM. Moreover, the 50% inhibitory concentration (IC50) on human H3 receptor [2] (setting [6]) was 2100 nM.
For `O=C(NCCc1ccc(OCCN2CCCC2)c(Br)c1)c1nnc[nH]1` [N-(3-bromo-4-(2-(pyrrolidin-1-yl)ethoxy)phenethyl)-4H-1,2,4-triazole-3-carboxamide], on human H3 receptor [1] (setting [5]), the Ki was determined as 430 nM. On human H3 receptor [2] (setting [6]), the IC50 was 970 nM.
On the same counts, the results for `CN1CCCC(COc2ccc(CCNC(=O)c3cc(Br)cs3)cc2Br)C1` (stereo not shown) [4-bromo-N-(3-bromo-4-((1-methylpiperidin-3-yl)methoxy)phenethyl)thiophene-2-carboxamide] are 1200 nM and 1700 nM.
On the same counts, the results for `O=C(NCCc1ccc(OCCN2CCCC2)c(Br)c1)c1ccc[nH]1` [N-(3-bromo-4-(2-(pyrrolidin-1-yl)ethoxy)phenethyl)-1H-pyrrole-2-carboxamide] are 150 nM and 380 nM.
The like results for `O=C(NCCc1ccc(OCCN2CCCC2)c(Br)c1)c1cnco1` [N-(3-bromo-4-(2-(pyrrolidin-1-yl)ethoxy)phenethyl)oxazole-5-carboxamide] were, in that order, 37 nM and 83 nM.
Regarding `C[C@H]1CCCN1CCOc1ccc(CCNC(=O)c2cc(Br)cs2)cc1Br` [(S)-4-bromo-N-(3-bromo-4-(2-(2-methylpyrrolidin-1-yl)ethoxy)phenethyl)thiophene-2-carboxamide], on human H3 receptor [1] (setting [5]), the inhibition constant Ki was found to be 330 nM. In addition, on human H3 receptor [2] (setting [6]), the IC50 was 750 nM.
The like results for `O=C(NCCc1ccc(OCCN2CCCC2)c(Br)c1)c1ccc(Br)o1` [5-bromo-N-(3-bromo-4-(2-(pyrrolidin-1-yl)ethoxy)phenethyl)furan-2-carboxamide] were, in that order, 170 nM and 390 nM.
The like results for `C[C@@H]1CCCN1CCOc1ccc(CCNC(=O)c2cc(Br)cs2)cc1Br` [(R)-4-bromo-N-(3-bromo-4-(2-(2-methylpyrrolidin-1-yl)ethoxy)phenethyl)thiophene-2-carboxamide] were, in that order, 310 nM and 710 nM.
As to `CN1CCCC(COc2ccc(CCNC(=O)c3ccc[nH]3)cc2Br)C1` (stereo not shown) [N-(3-bromo-4-((1-methylpiperidin-3-yl)methoxy)phenethyl)-1H-pyrrole-2-carboxamide], on human H3 receptor [1] (setting [5]), the Ki was 1500 nM. In addition, the IC50 at human H3 receptor [2] (setting [6]) was 3600 nM.
For “N-(3-bromo-4-(2-(pyrrolidin-1- yl)ethoxy)phenethyl)thiazole-5-carboxamide”, on human H3 receptor [1] (setting [5]), the inhibitory constant (Ki) was 32 nM. Also, the IC50 on human H3 receptor [2] (setting [6]) amounted to 72 nM.
The like results for `CN(C)CCCOc1ccc(CCNC(=O)c2ccc[nH]2)cc1Br` [N-(3-bromo-4-(3-(dimethylamino)propoxy)phenethyl)-1H-pyrrole-2-carboxamide] were, in that order, 1300 nM and 2900 nM.
For `O=C(NCCc1ccc(OCCN2CCCC2)c(Br)c1)c1cccc(Br)c1` [3-bromo-N-(3-bromo-4-(2-(pyrrolidin-1-yl)ethoxy)phenethyl)benzamide], the inhibitory constant (Ki) at human H3 receptor [1] (setting [5]) turned out to be 210 nM. Further, the IC50 at human H3 receptor [2] (setting [6]) came to 450 nM.
Regarding `O=C(NCCc1ccc(OCCN2CCCC2)c(Br)c1)c1cccc(Cl)c1` [N-(3-bromo-4-(2-(pyrrolidin-1-yl)ethoxy)phenethyl)-3-chlorobenzamide], the Ki on human H3 receptor [1] (setting [5]) was determined as 250 nM. Moreover, at human H3 receptor [2] (setting [6]), the IC50 worked out at 550 nM.
As for `O=C(NCc1ccc(OCCN2CCCC2)c(Cl)c1)c1cc(Br)cs1` [4-bromo-N-(3-chloro-4-(2-(pyrrolidin-1-yl)ethoxy)benzyl)thiophene-2-carboxamide], at human H3 receptor [1] (setting [5]), the Ki amounted to 1100 nM. For the same molecule, at human H3 receptor [2] (setting [6]), the half-inhibitory concentration (IC50) worked out at 2400 nM.
`CN1CCCC(COc2ccc(CCNC(=O)c3cccn3C)cc2Br)C1` (stereo not shown) [N-(3-bromo-4-((1-methylpiperidin-3-yl)methoxy)phenethyl)-1-methyl-1H-pyrrole-2-carboxamide]: at human H3 receptor [1] (setting [5]), the Ki worked out at 910 nM. Further, the half-inhibitory concentration (IC50) on human H3 receptor [2] (setting [6]) was determined as 2100 nM.
Usually inhibition stands for the relative decrease from the control value, in per cent. Turning to `CN(C)CCCOc1ccc(CCNC(=O)c2cc(Br)c[nH]2)cc1Br` [dispyrin, 4-bromo-N-(3-bromo-4-(3-(dimethylamino)propoxy)phenethyl)-1H-pyrrole-2-carboxamide], the “other modest activities (other GPCRs and ion channels)” value in data set [3] is reported as 50-60%. Also, in data set [4], the inhibition at 10 µM fell in the range of 50 to 60%. The Ki on human H3 receptor [1] (setting [5]) came to 1100 nM; on human H3 receptor [1] (radioligand binding assay employing [3H](R)-α-methylhistamine, read-out: Ki, affinity for the human H3 receptor), 1040 nM. In addition, the half-maximal inhibitory concentration (IC50) was determined as 2400 nM at human H3 receptor [2] (setting [6]); 2350 nM at human H3 receptor [2] (read-out: IC50, human H3 antagonist); 2350 nM on human H3 receptor [2] (text of b259, read-out: IC50, human H3 antagonist).
With `CN(C)CCOc1ccc(CCNC(=O)c2ccc(Br)o2)cc1Br` [5-bromo-N-(3-bromo-4-(2-(dimethylamino)ethoxy)phenethyl)furan-2-carboxamide], the Ki on human H3 receptor [1] (setting [5]) was 2700 nM. Moreover, the IC50 on human H3 receptor [2] (setting [6]) amounted to 5900 nM.
